Measured values from US9314506B2, “Methods for increasing insulin secretion by co-stimulation of corticotropin-releasing factor receptors” (Research Development Foundation, priority 2011, dated 2016).

Legend:
Human islets = experiment: Insulin secretion from cultured human islets (insulin ELISA); type: cell-based; conditions: FIG. 1; for Insulin secretion, single agonist: human islets, 60 min stimulation with glucose and peptide, single CRF receptor agonist added
Protocol: Human islets were handpicked twice and cultured overnight in CMRL-1066 medium (Invitrogen™) supplemented with 10% fetal bovine serum (FBS) and penicillin/streptomycin at 37° C., 5% CO2. Islets were starved in RPMI 1640 medium supplemented with 1.4 mM glucose and 0.1% BSA for 60 min and then were transferred into 1.2 mL of medium (RPMI 1640 supplemented with 2.8 mM glucose, 0.1% BSA) in 24-well plates at 100 islets/well. After 60 min, 600 μL of medium was collected for the determination of basal insulin release, and then islets were stimulated for 60 min with glucose and peptide as indicated in RPMI 1640 containing 0.1% BSA. Samples were diluted 20 times in RPMI 1640 with 0.1% BSA and were stored at −20° C. until determination of insulin concentrations with an insulin ELISA kit (Mercodia AB).
Peptides used in the studies were ovine CRF (oCRF), a selective CRF-R1 agonist; human Urocortin 3 (hUcn 3), a selective CRF-R2 agonist; antalarmin, a selective CRF-R1 antagonist; and astressin2-B, a selective CRF-R2 antagonist. […] Insulin secretion was enhanced by addition of either a CRF1 receptor agonist (oCRF) or a CRF2 receptor agonist (hUcn 3). […] The synergistic enhancement was inhibited by the addition of either a CRF1 receptor antagonist (antalarmin) or a CRF2 receptor antagonist (astressin2-B) to the cells (FIG. 1).

[1] = test system: pancreatic beta cell mass; experiment: Beta cell mass in doxycycline-inducible, beta cell-specific Ucn 1 transgenic mice; type: in vivo; conditions: bitransgenic mouse, doxycycline for 6 weeks (21 days to 9 weeks of age), vs single transgenic controls on dox or bitransgenic without dox; FIG. 5
From the text: A transgenic mouse model that features beta cell-specific, doxycycline-inducible expression of Ucn 1 was generated by routine transgenic techniques. Single transgenic mice were obtained comprising either an expressible tetracycline transactivator (tTA) protein under the control of a pancreas-specific Insulin2 promoter (Jax Stock#008250 STOCK Tg(Ins2-rtTA)2Efr/J) or expressible Ucn1 under the control of a tTA protein-activated promoter (see, e.g., Sun et al., 2007 and Mallo, 2006). Single transgenic mice were crossed to generate the bitransgenic mice referenced in the studies. Thus, transgenic Ucn 1 expression in beta cells requires the presence of two transgenic cassettes as well as the administration of doxycycline. […] Bitransgenic animals, along with single transgenic controls, were administered doxycyline continuously as indicated from 21 days until 9 weeks of age. […] Sections were mounted in fluorescence mounting media containing dapi counterstain. Each section was scanned and the total pancreas surface area (based on the dapi counterstain) and the total beta cell surface area (based on the insulin-Cy3 stain) were quantified using standard morphometry techniques using Metamorph software. Beta cell area in each animal was expressed as the insulin+ surface area as a percentage of the total surface area (FIG. 5).

Molecule	Insulin secretion, single agonist (Human islets)	also measured
CCCCN(CC)c1nc(C)nc2c1c(C)c(C)n2-c1c(C)cc(C)cc1C [antalarmin]		Effect of antagonist on the synergistic enhancement of insulin secretion (Human islets; human islets co-stimulated with CRF1 and CRF2 receptor agonists, antagonist added): inhibited
hUcn 3: human Urocortin 3, a selective CRF-R2 agonist (FTLSLDVPTNIMNLLFNIAKAKNLRAQAAANAHLMAQI)	enhanced	
oCRF: ovine CRF, a selective CRF-R1 agonist (SQEPPISLDLTFHLLREVLEMTKADQLAQQAHSNRKLLDIA)	enhanced	
Ucn 1: Urocortin 1, agonist of both CRF1 and CRF2 receptors, expressed transgenically in mouse beta cells under doxycycline control (protein, listed as Homo sapiens) MRQAGRAALLAALLLLVQLCPGSSQRSPEAAGVQDPSLRWSPGARNQGGGARALLLLLAERFPRRAGPGRLGLGTAGERPRRDNPSLSIDLTFHLLRTLLELARTQSQRERAEQNRIIFDSVGK		Beta cell mass (insulin+ surface area as a percentage of total pancreas surface area) [1]: robust increase
